In PubChem BioAssay (NCI):
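Each compound was tested at five concentrations against cells in 96-well plates for 48 hours. TGI: total growth inhibition.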 Where a SMILES comes first, the peptide text is derived from it. The star is where a group is joined. Boc = CC(C)(C)OC(=O)*

Assays:
Assay in all cases: inhibition of tumour cell growth, NCI panel, 48 h
786-0 renal = system: 786-0 renal
A498 renal = system: A498 renal
A549 NSCLC = system: A549 NSCLC
ACHN renal = system: ACHN renal
BT-549 breast = system: BT-549 breast
CCRF-CEM leukemia = system: CCRF-CEM leukemia
DU-145 prostate = system: DU-145 prostate
HCC-2998 colon = system: HCC-2998 colon
HCT-116 colon = system: HCT-116 colon
HL-60(TB) leukemia = system: HL-60(TB) leukemia
HOP-62 NSCLC = system: HOP-62 NSCLC
HT29 colon = system: HT29 colon
IGROV1 ovarian = system: IGROV1 ovarian
K-562 leukemia = system: K-562 leukemia
LOX IMVI melanoma = system: LOX IMVI melanoma
M14 melanoma = system: M14 melanoma
MALME-3M melanoma = system: MALME-3M melanoma
MCF7 breast = system: MCF7 breast
MDA-MB-231 breast = system: MDA-MB-231 breast
MDA-MB-435 = system: MDA-MB-435
MDA-N = system: MDA-N
MOLT-4 leukemia = system: MOLT-4 leukemia
NCI-H226 lung = system: NCI-H226 lung
NCI-H23 lung = system: NCI-H23 lung
NCI-H460 lung = system: NCI-H460 lung
NCI-H522 lung = system: NCI-H522 lung
OVCAR-3 ovarian = system: OVCAR-3 ovarian
OVCAR-4 ovarian = system: OVCAR-4 ovarian
OVCAR-5 ovarian = system: OVCAR-5 ovarian
OVCAR-8 ovarian = system: OVCAR-8 ovarian
PC-3 prostate = system: PC-3 prostate
RPMI-8226 leukemia = system: RPMI-8226 leukemia
SF-268 CNS = system: SF-268 CNS
SK-MEL-2 melanoma = system: SK-MEL-2 melanoma
SK-MEL-28 melanoma = system: SK-MEL-28 melanoma
SK-MEL-5 melanoma = system: SK-MEL-5 melanoma
SN12C renal = system: SN12C renal
SNB-19 CNS = system: SNB-19 CNS
SNB-75 CNS = system: SNB-75 CNS
SR leukemia = system: SR leukemia
SW-620 colon = system: SW-620 colon
T-47D breast = system: T-47D breast
TK-10 renal = system: TK-10 renal
U251 CNS = system: U251 CNS
UACC-257 melanoma = system: UACC-257 melanoma
UACC-62 melanoma = system: UACC-62 melanoma
UO-31 renal = system: UO-31 renal
CAKI-1 renal = system: CAKI-1 renal
EKVX NSCLC = system: EKVX NSCLC
HCT-15 colon = system: HCT-15 colon
HS 578T breast = system: HS 578T breast
KM12 colon = system: KM12 colon
RXF 393 renal = system: RXF 393 renal
SF-295 CNS = system: SF-295 CNS
SF-539 CNS = system: SF-539 CNS
COLO 205 colon = system: COLO 205 colon
NCI/ADR-RES ovarian = system: NCI/ADR-RES ovarian
SK-OV-3 ovarian = system: SK-OV-3 ovarian

With CC(C)(C)OC(=O)NC(Cc1ccc(O)cc1)C(=O)NC(CCCCN)C(=O)O (stereo not drawn) (Boc-Tyr-Lys-OH; configuration not given here) the TGI (786-0 renal) was over 100 µM, the TGI (A498 renal) was 92.4 µM and the TGI (A549 NSCLC) was over 100 µM. The TGI (ACHN renal) was 65.1 µM, the TGI (BT-549 breast) was 80.5 µM and the TGI (CCRF-CEM leukemia) was 92.7 µM. For the same molecule, the TGI (DU-145 prostate) was 80.3 µM, the TGI (HCC-2998 colon) was 65.3 µM and the TGI (HCT-116 colon) was 40.9 µM. It also gave a TGI (HL-60(TB) leukemia) of 52.8 µM, a TGI (HOP-62 NSCLC) of 39 µM and a TGI (HT29 colon) of over 100 µM. It also gave a TGI (IGROV1 ovarian) of 37.1 µM, a TGI (K-562 leukemia) of over 100 µM and a TGI (LOX IMVI melanoma) of 28.2 µM. The TGI (M14 melanoma) was 56 µM, the TGI (MALME-3M melanoma) was 76.6 µM and the TGI (MCF7 breast) was over 100 µM. The TGI (MDA-MB-231 breast) was 61.8 µM, the TGI (MDA-MB-435) was over 100 µM and the TGI (MDA-N) was over 100 µM. For the same molecule, the TGI (MOLT-4 leukemia) was 94.7 µM, the TGI (NCI-H226 lung) was over 100 µM and the TGI (NCI-H23 lung) was 48.6 µM. It also gave a TGI (NCI-H460 lung) of 66.2 µM, a TGI (NCI-H522 lung) of 26.5 µM and a TGI (OVCAR-3 ovarian) of 66.3 µM. For the same molecule, the TGI (OVCAR-4 ovarian) was 48.1 µM, the TGI (OVCAR-5 ovarian) was 84.9 µM and the TGI (OVCAR-8 ovarian) was over 100 µM. The TGI (PC-3 prostate) was over 100 µM, the TGI (RPMI-8226 leukemia) was 84.5 µM and the TGI (SF-268 CNS) was over 100 µM. For the same molecule, the TGI (SK-MEL-2 melanoma) was 35.1 µM, the TGI (SK-MEL-28 melanoma) was 56.1 µM and the TGI (SK-MEL-5 melanoma) was over 100 µM. It also gave a TGI (SN12C renal) of 42.3 µM, a TGI (SNB-19 CNS) of 53.2 µM and a TGI (SNB-75 CNS) of 77 µM. It also gave a TGI (SR leukemia) of 77.3 µM, a TGI (SW-620 colon) of over 100 µM and a TGI (T-47D breast) of 53.1 µM. For the same molecule, the TGI (TK-10 renal) was over 100 µM, the TGI (U251 CNS) was 43.5 µM and the TGI (UACC-257 melanoma) was 83.5 µM. For the same molecule, the TGI (UACC-62 melanoma) was 31.5 µM and the TGI (UO-31 renal) was 54 µM.

Molecule O=C(c1cc(Cl)ccc1Cl)N1CCN(c2cccc(Cl)c2)CC1 has a TGI (786-0 renal) of 34 µM, a TGI (A498 renal) of 34.8 µM and a TGI (A549 NSCLC) of 42.6 µM. It also gave a TGI (ACHN renal) of 76.5 µM, a TGI (BT-549 breast) of 23.1 µM and a TGI (CAKI-1 renal) of over 100 µM. It also gave a TGI (CCRF-CEM leukemia) of 59.7 µM, a TGI (DU-145 prostate) of over 100 µM and a TGI (EKVX NSCLC) of 96.5 µM. For the same molecule, the TGI (HCC-2998 colon) was 39.5 µM, the TGI (HCT-116 colon) was 24.1 µM and the TGI (HCT-15 colon) was over 100 µM. The TGI (HL-60(TB) leukemia) was over 100 µM, the TGI (HOP-62 NSCLC) was 61.5 µM and the TGI (HS 578T breast) was 65.8 µM. It also gave a TGI (HT29 colon) of 27.1 µM, a TGI (IGROV1 ovarian) of 56.8 µM and a TGI (K-562 leukemia) of 16.2 µM. For the same molecule, the TGI (KM12 colon) was 20 µM, the TGI (LOX IMVI melanoma) was 25.5 µM and the TGI (M14 melanoma) was over 100 µM. It also gave a TGI (MALME-3M melanoma) of 28.6 µM, a TGI (MCF7 breast) of over 100 µM and a TGI (MDA-MB-231 breast) of 20.3 µM. It also gave a TGI (MDA-N) of 5.62 µM, a TGI (MOLT-4 leukemia) of 37 µM and a TGI (NCI-H226 lung) of 42.6 µM. It also gave a TGI (NCI-H23 lung) of over 100 µM, a TGI (NCI-H460 lung) of 31.5 µM and a TGI (NCI-H522 lung) of 30.4 µM. It also gave a TGI (OVCAR-3 ovarian) of 38 µM, a TGI (OVCAR-4 ovarian) of over 100 µM and a TGI (OVCAR-5 ovarian) of over 100 µM. It also gave a TGI (OVCAR-8 ovarian) of 38.9 µM, a TGI (PC-3 prostate) of 6.22 µM and a TGI (RPMI-8226 leukemia) of over 100 µM. It also gave a TGI (RXF 393 renal) of 27.5 µM, a TGI (SF-268 CNS) of over 100 µM and a TGI (SF-295 CNS) of 25.6 µM. It also gave a TGI (SF-539 CNS) of 31.4 µM, a TGI (SK-MEL-28 melanoma) of 81.9 µM and a TGI (SK-MEL-5 melanoma) of 19.3 µM. For the same molecule, the TGI (SN12C renal) was 20.2 µM, the TGI (SNB-19 CNS) was over 100 µM and the TGI (SNB-75 CNS) was over 100 µM. For the same molecule, the TGI (SR leukemia) was over 100 µM, the TGI (SW-620 colon) was 94.8 µM and the TGI (T-47D breast) was over 100 µM. The TGI (TK-10 renal) was over 100 µM, the TGI (U251 CNS) was 62 µM and the TGI (UACC-257 melanoma) was 50.3 µM. The TGI (UO-31 renal) was 58.9 µM.

CN(C)c1ccc(C(=O)NCCCCCCC(=O)NO)cc1 gave a TGI (786-0 renal) of over 30.4 µM, a TGI (A498 renal) of 3.07 µM and a TGI (A549 NSCLC) of 10.9 µM. It also gave a TGI (ACHN renal) of 5.45 µM, a TGI (BT-549 breast) of over 28.3 µM and a TGI (CAKI-1 renal) of 2.81 µM. The TGI (CCRF-CEM leukemia) was over 100 µM, the TGI (COLO 205 colon) was 0.832 µM and the TGI (EKVX NSCLC) was over 100 µM. For the same molecule, the TGI (HCC-2998 colon) was 1.48 µM, the TGI (HCT-116 colon) was 0.972 µM and the TGI (HCT-15 colon) was over 38.3 µM. It also gave a TGI (HL-60(TB) leukemia) of over 63.8 µM, a TGI (HOP-62 NSCLC) of 98.8 µM and a TGI (HS 578T breast) of over 23.8 µM. The TGI (HT29 colon) was over 32.5 µM, the TGI (IGROV1 ovarian) was 2.69 µM and the TGI (K-562 leukemia) was over 100 µM. The TGI (KM12 colon) was 35.4 µM, the TGI (LOX IMVI melanoma) was 1.51 µM and the TGI (M14 melanoma) was over 38 µM. For the same molecule, the TGI (MALME-3M melanoma) was over 100 µM, the TGI (MDA-MB-435) was 3.62 µM and the TGI (MDA-N) was 0.908 µM. The TGI (MOLT-4 leukemia) was over 100 µM, the TGI (NCI-H226 lung) was 17.8 µM and the TGI (NCI-H23 lung) was 3.66 µM. For the same molecule, the TGI (NCI-H460 lung) was 5.21 µM, the TGI (NCI-H522 lung) was 0.739 µM and the TGI (NCI/ADR-RES ovarian) was 0.728 µM. For the same molecule, the TGI (OVCAR-3 ovarian) was 4.38 µM, the TGI (OVCAR-4 ovarian) was over 25.3 µM and the TGI (OVCAR-5 ovarian) was 1.49 µM. For the same molecule, the TGI (OVCAR-8 ovarian) was 2.46 µM, the TGI (RXF 393 renal) was 1.73 µM and the TGI (SF-268 CNS) was 6.26 µM. For the same molecule, the TGI (SF-295 CNS) was 1.82 µM, the TGI (SF-539 CNS) was over 53 µM and the TGI (SK-MEL-2 melanoma) was 0.932 µM. For the same molecule, the TGI (SK-MEL-28 melanoma) was 13.9 µM, the TGI (SK-MEL-5 melanoma) was 1.39 µM and the TGI (SK-OV-3 ovarian) was 1.54 µM. It also gave a TGI (SN12C renal) of 2.03 µM, a TGI (SNB-19 CNS) of over 100 µM and a TGI (SNB-75 CNS) of 2.2 µM. For the same molecule, the TGI (SR leukemia) was over 76 µM, the TGI (SW-620 colon) was over 21.5 µM and the TGI (T-47D breast) was 1.04 µM. It also gave a TGI (TK-10 renal) of 2.7 µM, a TGI (U251 CNS) of 3.64 µM and a TGI (UACC-257 melanoma) of 2.13 µM. For the same molecule, the TGI (UACC-62 melanoma) was 1.37 µM and the TGI (UO-31 renal) was 5.2 µM.
